Test results reported in US10208068B2, “Macrocycles as factor XIa inhibitors” (BRISTOL-MYERS SQUIBB COMPANY, priority 2011, dated 2019).
Structures can show the parent of a compound that is named as a salt.

Target: human Factor XIa (Homo sapiens (Human), UniProt P03951)
Test: Factor XIa enzyme inhibition assay (chromogenic substrate S-2366)
Assay type: biochemical
Settings: purified human Factor XIa 25-200 pM, substrate S-2366, 50 mM HEPES pH 7.4

Chain of human Factor XIa (P03951 388-625): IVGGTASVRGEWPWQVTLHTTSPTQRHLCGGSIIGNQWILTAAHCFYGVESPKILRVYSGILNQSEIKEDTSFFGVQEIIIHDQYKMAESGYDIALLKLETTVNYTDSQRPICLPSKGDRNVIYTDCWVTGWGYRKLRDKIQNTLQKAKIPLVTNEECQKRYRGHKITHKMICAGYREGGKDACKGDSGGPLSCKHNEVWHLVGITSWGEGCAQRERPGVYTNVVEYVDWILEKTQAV
Chain of human Factor XIa (P03951 19-387 partner): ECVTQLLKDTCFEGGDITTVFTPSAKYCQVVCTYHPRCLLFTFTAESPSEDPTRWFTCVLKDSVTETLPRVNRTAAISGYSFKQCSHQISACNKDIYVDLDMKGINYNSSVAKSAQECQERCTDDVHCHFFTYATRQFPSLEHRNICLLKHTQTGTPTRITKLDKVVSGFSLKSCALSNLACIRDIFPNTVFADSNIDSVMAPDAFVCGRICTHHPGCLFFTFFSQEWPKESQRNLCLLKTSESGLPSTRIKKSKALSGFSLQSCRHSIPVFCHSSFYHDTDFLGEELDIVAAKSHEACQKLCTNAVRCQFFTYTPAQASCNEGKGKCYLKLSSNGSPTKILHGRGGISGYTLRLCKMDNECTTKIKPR

Ki	Structure (SMILES)
0.0549 µM	COC(=O)Nc1ccc2c(c1)NC(=O)[C@H](C)C(O)CC[C@H](NC(=O)c1cnn(-c3cccc(Cl)c3F)c1C)c1cc-2ccn1 (single isomer, unassigned) [Example 177, TFA salt]
0.312 µM	COC(=O)Nc1ccc2c(c1)C(=O)NC(C)CCC[C@H](NC(=O)c1cnn(-c3cccc(Cl)c3F)c1C)c1cc-2ccn1 (single isomer, unassigned) [Example 221]
< 0.005 µM	Cc1c(C(=O)N[C@H]2CCC[C@@H](C)C(=O)Nc3cc(N)c(C(=O)O)cc3-c3ccnc2c3)nnn1-c1cccc(Cl)c1F [Example 158, (10R,14S)-5-Amino-14-[1-(3-chloro-2-fluorophenyl)-5-methyl-1H-1,2,3-triazole-4-amido]-10-methyl-9-oxo-8,16-diazatricyclo[13.3.1.0^2,7]nonadeca-1(19),2(7),3,5,15,17-hexaene-4-carboxylic acid]
0.00994 µM	Cc1nnc(Nc2ccc3c(c2)NC(=O)[C@H](C)CCC[C@H](NC(=O)c2nnn(-c4cccc(Cl)c4F)c2C)c2cc-3ccn2)o1 [Example 159, 1-(3-Chloro-2-fluorophenyl)-5-methyl-N-[(10R,14S)-10-methyl-5-[(5-methyl-1,3,4-oxadiazol-2-yl)amino]-9-oxo-8,16-diazatricyclo[13.3.1.0^2,7]nonadeca-1(19),2(7),3,5,15,17-hexaen-14-yl]-1H-1,2,3-triazole-4-carboxamide]
5.08 µM	Cc1c(C(=O)N[C@H]2CCC[C@H](C)C(=O)Nc3cc(-c4ccn[nH]4)ccc3-c3ccnc2c3)nnn1-c1cccc(Cl)c1F [Example 165, 1-(3-Chloro-2-fluorophenyl)-5-methyl-N-[(10S,14S)-10-methyl-9-oxo-5-(1H-pyrazol-5-yl)-8,16-diazatricyclo[13.3.1.0^2,7]nonadeca-1(19),2(7),3,5,15,17-hexaen-14-yl]-1H-1,2,3-triazole-4-carboxamide, TFA salt]
0.00665 µM	Cc1c(C(=O)N[C@H]2CCC[C@@H](C)C(=O)Nc3cc(C(N)=O)ccc3-c3ccnc2c3)cnn1-c1cccc(Cl)c1F [Example 190, (10R,14S)-14-C-1-(3-Chloro-2-fluorophenyl)-5-methyl-1H-pyrazole-4-10-methyl-9-oxo-8,16-diazatricyclo[13.3.1.0^2,7]nonadeca-1(19),2(7),3,5,15,17-hexaene-5,14-diamido, TFA salt]
2.98 µM	Cc1c(C(=O)N[C@H]2CCCCC(=O)Nc3cc(C(=O)N(C)C)ccc3-c3ccnc2c3)cnn1-c1cccc(Cl)c1F [Example 193, (14S)-14-C-1-(3-Chloro-2-fluorophenyl)-5-methyl-1H-pyrazole-4-5-N,5-N-dimethyl-9-oxo-8,16-diazatricyclo[13.3.1.0^2,7]nonadeca-1(19),2(7),3,5,15,17-hexaene-5,14-diamido, TFA salt]
0.153 µM	COC(=O)Nc1ccc2c(c1)NC(=O)[C@H](C)CCC[C@H](NC(=O)c1nnn(-c3c(F)ccc(Cl)c3F)c1C)c1nc-2c[nH]1 [Example 207]
< 0.005 µM	COC(=O)Nc1ccc2c(c1)NC(=O)[C@H](C)CCC[C@H](NC(=O)c1cnn(-c3cccc(Cl)c3F)c1C)c1cc(OC)nc-2c1 [Example 227]
4.29 µM	COC(=O)Nc1ccc2c(c1)NC(=O)[C@@H](C)CCC[C@@H](NC(=O)c1cnn(-c3cccc(Cl)c3F)c1C)c1cc-2ncc1F [Example 232]
< 0.005 µM	COC(=O)Nc1ccc2c(c1)NC(=O)CCCC[C@H](NC(=O)c1cnn(-c3cccc(Cl)c3F)c1C)c1cc-2ccn1 [Example 234]
< 0.005 µM	COC(=O)Nc1ccc2c(c1)NC(=O)[C@H](C)CCC[C@H](NC(=O)c1cnn(-c3cccc(Cl)c3F)c1C)c1cc-2cnn1 [Example 246]
< 0.005 µM	COCCOC(=O)Nc1ccc2c(c1)NC(=O)[C@H](C)CCC[C@H](NC(=O)c1ncn(-c3cccc(Cl)c3F)c1C)c1cc-2ccn1 [Example 251]
< 0.005 µM	COC(=O)Nc1ccc2c(c1)NC(=O)[C@H](C)CCC[C@H](NC(=O)c1ncn(-c3cccc(Cl)c3F)c1C)c1cc-2cc(=O)[nH]1 [Example 256]
< 0.005 µM	COC(=O)Nc1ccc2c(c1)NC(=O)[C@H](C)CCC[C@H](NC(=O)c1ncn(-c3cccc(Cl)c3F)c1C)c1cc-2cc(OC)n1 [Example 257]
0.0136 µM	COC(=O)Nc1ccc2c(c1)NC(=O)[C@H](C)CCC[C@H](NC(=O)c1cnn(-c3cccc(Cl)c3F)c1C)c1c[nH]c-2n1 [Example 262]
0.0333 µM	COC(=O)Nc1ccc2c(c1)NC(=O)[C@H](C)CCC[C@H](NC(=O)c1ncn(-c3cccc(Cl)c3F)c1C)c1c[nH]c-2n1 [Example 263]

Continued, compound first:

Structure (SMILES)	Ki
CCC1CCC[C@H](NC(=O)c2cn(-c3cccc(Cl)c3F)nn2)c2cc(ccn2)-c2ccc(NC(=O)OC)cc2NC1=O (single isomer, unassigned) [Example 24, TFA salt]	< 0.005 µM
COC(=O)Nc1ccc2c(c1)NC(=O)[C@H](C)CCC[C@H](NC(=O)c1cn(-c3cccc(Cl)c3F)nn1)c1cc-2ccn1 [Example 3]	< 0.005 µM
COC(=O)Nc1ccc2c(c1)NC(=O)[C@H](C)CCC[C@H](NC(=O)c1cnn(C3CCCNC3)c1)c1cc-2ccn1 (stereo partly drawn) [Example 11]	0.0694 µM
COC(=O)Nc1ccc2c(c1)NC(=O)[C@H](C)CCC[C@H](NC(=O)c1nnn(-c3cccc(Cl)c3F)c1Cl)c1cc-2ccn1 [Example 15]	< 0.005 µM
COC(=O)Nc1ccc2c(c1)NC(=O)[C@H](C)CCC[C@H](NC(=O)c1cn(-c3cccc(C)c3)cn1)c1cc-2ccn1 [Example 18]	0.0987 µM
COC(=O)Nc1ccc2c(c1)NC(=O)CCCC[C@H](NC(=O)c1cnn(-c3cccc(Cl)c3F)c1)c1cc-2ccn1 [Example 21, Methyl N-[(14S)-14-[1-(3-chloro-2-fluorophenyl)-1H-pyrazole-4-amido]-9-oxo-8,16-diazatricyclo[13.3.1.0^2,7]nonadeca-1(19),2(7),3,5,15,17-hexaen-5-yl]carbamate, TFA salt]	0.00908 µM
CCOC(=O)C1CCCC[C@H](NC(=O)c2cnn(-c3cccc(Cl)c3F)c2)c2cc(ccn2)-c2ccc(NC(=O)OC)cc2N1 (stereo partly drawn) [Example 26, Ethyl (9R,14S)-14-[1-(3-chloro-2-fluorophenyl)-1H-pyrazole-4-amido]-5-[(methoxycarbonyl)amino]-8,16-diazatricyclo[13.3.1.0^2,7]nonadeca-1(19),2(7),3,5,15,17-hexaene-9-carboxylate, 2 TFA salt]	0.177 µM
COC(=O)Nc1ccc2c(c1)NC(=O)CCCC[C@H](NC(=O)c1cnn(-c3cccc(Cl)c3F)c1)c1cc-2cnc1F [Example 32, Methyl N-[(14S)-14-[1-(3-chloro-2-fluorophenyl)-1H-pyrazole-4-amido]-16-fluoro-9-oxo-8,17-diazatricyclo[13.3.1.0^2,7]nonadeca-1(19),2(7),3,5,15,17-hexaen-5-yl]carbamate, TFA salt]	0.0114 µM
COC(=O)Nc1ccc2c(c1)NC(=O)[C@H](C)CCC[C@H](NC(=O)c1nnn(-c3cccc(Cl)c3F)c1C)c1nc-2c[nH]1 [Example 39]	0.0108 µM
COC(=O)Nc1ccc2c(c1)NC(=O)[C@H](C)CCC[C@H](NC(=O)c1cnn(-c3cccc(Cl)c3)c1C)c1nc-2c[nH]1 [Example 41]	0.0128 µM
COC(=O)Nc1ccc2c(c1)NC(=O)CCCC[C@H](NC(=O)c1cn(-c3cccc(Cl)c3)nn1)c1nc-2c[nH]1 [Example 52, Methyl N-[(14S)-14-[1-(3-chlorophenyl)-1H-1,2,3-triazole-4-amido]-9-oxo-8,16,18-triazatricyclo[13.2.1.0^2,7]octadeca-1(17),2,4,6,15(18)-pentaen-5-yl]carbamate]	0.217 µM
COC(=O)Nc1ccc2c(c1)NC(=O)CC/C=C/C[C@H](NC(=O)c1c[nH]c(-c3c(F)ccc(Cl)c3F)n1)c1nc-2c[nH]1 [Example 58, Methyl ((12E,15S)-15-(((2-(3-chloro-2,6-difluorophenyl)-1H-imidazol-4-yl)carbonyl)amino)-9-oxo-8,17,19-triazatricyclo[14.2.1.0^2,7]nonadeca-1(18),2,4,6,12,16(19)-hexaen-5-yl)carbamate]	0.935 µM
COC(=O)Nc1ccc2c(c1)NC(=O)[C@H](C)CCC[C@H](NC(=O)c1cn(-c3c(F)ccc(Cl)c3F)cn1)c1cc-2ccn1 [Example 72]	0.0104 µM
COC(=O)Nc1ccc2c(c1)NC(=O)[C@H](C)CCC[C@H](NC(=O)c1cncc(-c3cccc(Cl)c3F)c1)c1cc-2ccn1 [Example 75]	0.0365 µM
COC(=O)Nc1ccc2c(c1)NC(=O)CCCC(C)[C@H](NC(=O)c1nnn(-c3cccc(Cl)c3F)c1C)c1cc-2ccn1 (stereo partly drawn) [Example 88, Methyl N-[(14S)-14-[1-(3-chloro-2-fluorophenyl)-5-methyl-1H-1,2,3-triazole-4-amido]-13-methyl-9-oxo-8,16-diazatricyclo[13.3.1.0^2,7]nonadeca-1(19),2(7),3,5,15,17-hexaen-5-yl]carbamate]	0.0526 µM
Cc1c(C(=O)N[C@H]2CCC[C@@H](C)C(=O)Nc3cc(NC(=O)C(F)(F)F)ccc3-c3ccnc2c3)nnn1-c1cccc(Cl)c1F [Example 137, 1-(3-Chloro-2-fluorophenyl)-5-methyl-N-[(10R,14S)-10-methyl-9-oxo-5-(trifluoroacetamido)-8,16-diazatricyclo[13.3.1.0^2,7]nonadeca-1(19),2(7),3,5,15,17-hexaen-14-yl]-1H-1,2,3-triazole-4-carboxamide]	0.547 µM
Cc1c(C(=O)N[C@H]2CCC[C@@H](C)C(=O)Nc3cc(NC(=O)OCF)ccc3-c3ccnc2c3)nnn1-c1cccc(Cl)c1F [Example 139, Fluoromethyl N-[(10R,14S)-14-[1-(3-chloro-2-fluorophenyl)-5-methyl-1H-1,2,3-triazole-4-amido]-10-methyl-9-oxo-8,16-diazatricyclo[13.3.1.0^2,7]nonadeca-1(19),2(7),3,5,15,17-hexaen-5-yl]carbamate]	0.00549 µM
Cc1c(C(=O)N[C@H]2CCC[C@@H](C)C(=O)Nc3cc(Nc4ccncn4)ccc3-c3ccnc2c3)nnn1-c1cccc(Cl)c1F [Example 151]	0.0173 µM
CCOC(=O)CNc1ccc2c(c1)NC(=O)[C@H](C)CCC[C@H](NC(=O)c1nnn(-c3cccc(Cl)c3F)c1C)c1cc-2ccn1 [Example 156, Ethyl 2-{[(10R,14S)-14-[1-(3-chloro-2-fluorophenyl)-5-methyl-1H-1,2,3-triazole-4-amido]-10-methyl-9-oxo-8,16-diazatricyclo[13.3.1.0^2,7]nonadeca-1(19),2(7),3,5,15,17-hexaen-5-yl]amino}acetate]	0.0168 µM
